This experiment has as its system P388 leukemia ip, CD2F1 mice, survival T/C. Nature of the experiment: NCI In Vivo Anticancer Drug Screen. Data for tumor model P388 Leukemia (intraperitoneal) in CD2F1 (CDF1) mice. Conditions: endpoint: median survival time, higher = longer survival. In a few lines:
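Mice carrying the transplanted tumor received test compound or vehicle. Survival was recorded in each group, and the value is the treated-group measurement divided by that of the vehicle-treated control group.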

[1] abbreviates: dose: 50.0 mg/kg/injection, schedule: Q01DX009 (ip), vehicle: saline with Tween-80.
[2] abbreviates: dose: 100.0 mg/kg/injection, schedule: Q01DX009 (ip), vehicle: saline with Tween-80.
[3] abbreviates: dose: 200.0 mg/kg/injection, schedule: Q01DX009 (ip), vehicle: saline with Tween-80.
Where [4] appears, read: dose: 50.0 mg/kg/injection, schedule: Q01DX005 (ip), vehicle: saline with Tween-80.
[5] abbreviates: dose: 100.0 mg/kg/injection, schedule: Q01DX005 (ip), vehicle: saline with Tween-80.
[6] abbreviates: dose: 50.0 mg/kg/injection, schedule: Q01DX009 (ip), vehicle: Klucel (hydroxypropylcellulose) (HPC).
[7] abbreviates: dose: 100.0 mg/kg/injection, schedule: Q01DX009 (ip), vehicle: Klucel (hydroxypropylcellulose) (HPC).
[8] abbreviates: dose: 200.0 mg/kg/injection, schedule: Q01DX009 (ip), vehicle: Klucel (hydroxypropylcellulose) (HPC).
Where [9] appears, read: dose: 50.0 mg/kg/injection, schedule: Q01DX005 (ip), vehicle: Klucel (hydroxypropylcellulose) (HPC).
[10] abbreviates: dose: 100.0 mg/kg/injection, schedule: Q01DX005 (ip), vehicle: Klucel (hydroxypropylcellulose) (HPC).
The mark [11] stands for this setting: dose: 200.0 mg/kg/injection, schedule: Q01DX005 (ip), vehicle: Klucel (hydroxypropylcellulose) (HPC).
Where [12] appears, read: dose: 100.0 mg/kg/injection, schedule: Q01DX001 (ip), vehicle: saline with Tween-80.
Setting [13] is: dose: 60.0 mg/kg/injection, schedule: Q01DX005 (ip), vehicle: saline with Tween-80.

Each structure is given as a SMILES string. Values joined by “and” are separate entries in the source; they are usually repeats but may differ in a detail not shown here. Identical values can stand only once. Inconclusive results and toxic doses are left out. Peptide text beside a SMILES is read from it.

Regarding `CCOC(=O)c1ccc(NC(=O)N2CC(C)OC(C)C2)cc1` (configuration not stated), the T/C under setting [1] is 87 % of control, the T/C under setting [2] is 97 % of control and the T/C under setting [3] is 97 % of control.
As to `c1ccc(-c2cnc3nc4[nH]c5ccccc5c4nn23)cc1`, the T/C is, setting by setting: under setting [4], 98 % of control; under setting [5], 92 % of control; (dose: 200.0 mg/kg/injection, schedule: Q01DX005 (ip), vehicle: saline with Tween-80) 98 % of control.
As for `N#CC1=NOC(C(N)C(=O)O)C1` (configuration not stated), the T/C was 103 % of control (dose: 50.0 mg/kg/injection, schedule: Q04DX002 (ip), vehicle: saline); 100 % of control (dose: 100.0 mg/kg/injection, schedule: Q04DX002 (ip), vehicle: saline); 98 % of control (dose: 200.0 mg/kg/injection, schedule: Q04DX002 (ip), vehicle: saline).
For the compound `c1ccc(SC(Sc2ccccc2)=C2CCCCC2)cc1`, the T/C was 100 % of control under setting [6], 106 % of control under setting [7] and 90 % of control under setting [8].
`O=C(Nc1ccccc1)SCCSC(=S)N1CCCC1`: the T/C is, setting by setting: under setting [9], 103 % of control; under setting [10], 105 % of control; under setting [11], 105 % of control.
As for `CC(=O)OC(C(=O)C=[N+]=[N-])C(OC(C)=O)C(OC(C)=O)C(=O)C=[N+]=[N-]` (configuration not stated), the T/C reads like this: under setting [6], 99 % of control; under setting [7], 113 % of control; under setting [8], 108 % of control.
Regarding `Nc1nc(C2CCCCC2)c(Br)c(=O)[nH]1`, the T/C reads like this: under setting [9], 97 % of control; under setting [10], 92 % of control; under setting [11], 92 % of control.
For `COc1cc2cc3c4cc5c(cc4cc[n+]3c(C)c2cc1OC)OCO5` (tested in a mixture with another compound), under “dose: 15.0 mg/kg/injection, schedule: Q04DX003 (ip), vehicle: saline”, the T/C is 153 % of control.
Take `NN=C(c1ccccn1)c1ccccn1`: the T/C is 94 % of control (dose: 37.5 mg/kg/injection, schedule: Q01DX009 (ip), vehicle: saline with Tween-80); 114 % of control (dose: 75.0 mg/kg/injection, schedule: Q01DX009 (ip), vehicle: saline with Tween-80); 113 % of control (dose: 150.0 mg/kg/injection, schedule: Q01DX009 (ip), vehicle: saline with Tween-80).
Regarding `O=[N+]([O-])c1ccc2nccc(Cl)c2c1`, the T/C (dose: 12.5 mg/kg/injection, schedule: Q01DX009 (ip), vehicle: Klucel (hydroxypropylcellulose) (HPC)) was 95 % of control and the T/C (dose: 25.0 mg/kg/injection, schedule: Q01DX009 (ip), vehicle: Klucel (hydroxypropylcellulose) (HPC)) was 100 % of control.
For the compound `COC(=O)C1CC=C(c2ccccc2)CNC1` (configuration not stated), the T/C is 93 % of control under setting [12] and 94 % of control (dose: 200.0 mg/kg/injection, schedule: Q01DX001 (ip), vehicle: saline with Tween-80).
On to `NC(=O)CC(N)C(=O)O.[Cl-].[Cl-].[Cl-].[Cl-].[Pt+2]` (configuration not stated), for which the T/C runs as follows: (dose: 1.56 mg/kg/injection, schedule: Q01DX009 (ip), vehicle: water) 99 % of control; (dose: 3.13 mg/kg/injection, schedule: Q01DX009 (ip), vehicle: water) 100 % of control; (dose: 6.25 mg/kg/injection, schedule: Q01DX009 (ip), vehicle: water) 100 % of control.
For `CCC[CH2][Sn][Cl]`, the T/C is 104 % of control under setting [1], 114 % of control under setting [2] and 117 % of control under setting [3].
Regarding `CNS(=O)(=O)c1ccc(Cl)cc1`, the T/C is 94 % of control (dose: 3.13 mg/kg/injection, schedule: Q01DX009 (ip), vehicle: saline); 99 % of control (dose: 6.25 mg/kg/injection, schedule: Q01DX009 (ip), vehicle: saline); 98 % of control (dose: 12.5 mg/kg/injection, schedule: Q01DX009 (ip), vehicle: saline); 98 % of control (dose: 25.0 mg/kg/injection, schedule: Q01DX009 (ip), vehicle: saline).
For the compound `c1ccc(P(CCNCCP(c2ccccc2)c2ccccc2)c2ccccc2)cc1`, the T/C is 105 % of control under setting [4] and 109 % of control under setting [5].
For `COc1ccccc1C(c1cc2c(cc1O)OCO2)N1CCOCC1` (configuration not stated), the T/C by setting is: under setting [13], 117 % of control; (dose: 120.0 mg/kg/injection, schedule: Q01DX005 (ip), vehicle: saline with Tween-80) 115 % of control; (dose: 240.0 mg/kg/injection, schedule: Q01DX005 (ip), vehicle: saline with Tween-80) 122 % of control.
Consider `O=c1cc(-c2ccc(OCc3ccccc3)c(-c3c(OCc4ccccc4)cc(OCc4ccccc4)c4c(=O)cc(-c5ccc(OCc6ccccc6)cc5)oc34)c2)oc2cc(OCc3ccccc3)cc(OCc3ccccc3)c12`, for which the T/C by setting is: (dose: 25.0 mg/kg/injection, schedule: Q01DX001 (ip), vehicle: saline with Tween-80) 93 % of control; (dose: 50.0 mg/kg/injection, schedule: Q01DX001 (ip), vehicle: saline with Tween-80) 89 % of control; under setting [12], 87 % of control; (dose: 200.0 mg/kg/injection, schedule: Q01DX001 (ip), vehicle: Klucel (hydroxypropylcellulose) (HPC)) 89 % of control; (dose: 400.0 mg/kg/injection, schedule: Q01DX001 (ip), vehicle: Klucel (hydroxypropylcellulose) (HPC)) 88 % of control.
`CC(C)CC(N)C(=O)NC(CCCN=C(N)N)C(=O)NC(CCCN=C(N)N)C(=O)NC(C)C(=O)NC(CO)C(=O)NC(CC(C)C)C(=O)NCC(=O)O` (configuration not stated) (H-LRRASLG-OH; configuration not given here): the T/C (dose: 2.25 mg/kg/injection, schedule: Q01DX009 (ip), vehicle: Klucel (hydroxypropylcellulose) (HPC)) is 103 % of control; the T/C (dose: 4.5 mg/kg/injection, schedule: Q01DX009 (ip), vehicle: Klucel (hydroxypropylcellulose) (HPC)) was 100 % of control; the T/C (dose: 9.0 mg/kg/injection, schedule: Q01DX009 (ip), vehicle: Klucel (hydroxypropylcellulose) (HPC)) was 100 % of control; the T/C (dose: 18.0 mg/kg/injection, schedule: Q01DX009 (ip), vehicle: Klucel (hydroxypropylcellulose) (HPC)) is 106 % of control; the T/C (dose: 36.0 mg/kg/injection, schedule: Q01DX009 (ip), vehicle: Klucel (hydroxypropylcellulose) (HPC)) is 106 % of control.
For the compound `O=C(Nc1ccccc1)/C(N=Nc1cc(S(=O)(=O)O)ccc1Cl)=N/Nc1cc(S(=O)(=O)O)ccc1Cl`, the T/C reads like this: under setting [1], 98 % of control; under setting [2], 96 % of control; under setting [3], 86 % of control.
As for `O=c1[nH]c2cc(Cl)ccc2c(=O)o1`, the T/C under setting [6] is 112 % of control, the T/C under setting [7] is 100 % of control and the T/C under setting [8] was 103 % of control.
As for `CCCCCCCCCCCCc1ccc(C[N+](C)(C)CC[N+](C)(C)Cc2ccc(CCCCCCCCCCCC)cc2)cc1`, the T/C (dose: 50.0 mg/kg/injection, schedule: Q01DX009 (ip), vehicle: saline) is 104 % of control.
In the case of `O=C(CNC(=O)Nc1ccc(Cl)c(Cl)c1)N/N=C/c1ccccc1F`, the T/C by setting is: (dose: 3.75 mg/kg/injection, schedule: Q01DX005 (ip), vehicle: saline with Tween-80) 104 % of control; (dose: 7.5 mg/kg/injection, schedule: Q01DX005 (ip), vehicle: saline with Tween-80) 102 % of control; (dose: 15.0 mg/kg/injection, schedule: Q01DX005 (ip), vehicle: saline with Tween-80) 102 % of control and 93 % of control; under setting [13], 95 % of control.
In the case of `O=C(OCCOCCO)c1ccccc1-c1c2cc(I)c(=O)c(I)c-2oc2c(I)c(O)c(I)cc12`, the T/C (dose: 60.0 mg/kg/injection, schedule: Q01DX005 (ip), vehicle: saline) is 94 % of control; the T/C (dose: 120.0 mg/kg/injection, schedule: Q01DX005 (ip), vehicle: saline) was 91 % of control; the T/C (dose: 240.0 mg/kg/injection, schedule: Q01DX005 (ip), vehicle: saline) was 92 % of control.
As for `Nc1nc(N)c2nc3c(nc2n1)C(=O)N(c1ccc(C(=O)O)cc1)C3`, the T/C was 106 % of control (dose: 6.25 mg/kg/injection, schedule: Q01DX009 (ip), vehicle: saline with Tween-80); 115 % of control (dose: 12.5 mg/kg/injection, schedule: Q01DX009 (ip), vehicle: saline with Tween-80); 117 % of control (dose: 25.0 mg/kg/injection, schedule: Q01DX009 (ip), vehicle: saline with Tween-80); 108 % of control under setting [1].

Values taken from PubChem BioAssay AID330 (DTP/NCI, 2004).
